# From patent US9931327B2, “Derivatives of 1-phenyl-2-pyridinyl alkyl alcohols as phosphodiesterase inhibitors” (Chiesi Farmaceutici S.p.A., priority 2011, dated 2018)
# Where a name gives a salt, the structure may show the parent alone.
# System: LPS-induced TNF-α release in peripheral blood mononuclear cells (PBMCs)
# Experiment: In vitro determination of PDE4 inhibitory activity in the PBMCs assay (LPS-induced TNF-α release)
# Type: cell-based, human
# Conditions: PBMC; human PBMCs, LPS 3 ng/ml, 18 hours, TNF-α by ELISA; read-out: PDE4 inhibition (IC50, 50% inhibition of LPS-induced TNF-α release)
# Description: The assay, which is based on the known inhibitory activity exerted by PDE4 inhibitors on the lipopolyshaccarides (LPS)-induced tumour necrosis factor-alpha (TNF-α release in peripheral blood mononuclear cells (PBMCs), was performed according to a method previously described (Hatzelmann A et al., J. Pharmacol. Exp. Ther., 2001; 297:267-279; and Draheim R et al., J. Pharmacol. Exp. Ther., 2004; 308:555-563, which are incorporated herein by reference in their entireties). Cryopreserved human PBMCs, (100 l/well) were incubated in 96-well plates (10^5 cells/well), for 30 minutes, in the presence or absence (50 microl) of the test compounds whose concentrations ranged from 10^−12 M to 10^−6 M or from […] to 10^−7 M. Subsequently, LPS (3 ng/ml) was added.
# After 18 hours of incubation at 37° C. in a humidified incubator under an atmosphere of 95% air and 5% CO2, culture medium was collected and TNF-α measured by ELISA. The results of the tested compounds, representatives of the invention, expressed as mean±95% confidence limits of the molar concentration of the test compound producing 50% inhibition of LPS-induced TNF-α release (IC50) are shown in the following Table: […]
row,SMILES,IC50 [nM]
1,"O=C(O[C@@H](Cc1c(Cl)c[n+]([O-])cc1Cl)c1ccc(OC(F)F)c(OCC2CC2)c1)[C@@H]1SCCN1C(=O)c1ccc(CN2CCS(=O)(=O)CC2)cc1 [Compound 40, 3,5-dichloro-4-((S)-2-(3-(cyclopropylmethoxy)-4-(difluoromethoxy)phenyl)-2-((S)-3-(4-(1,1-dioxothiomorpholinomethyl)benzoyl)thiazolidine-2-carbonyloxy)ethyl)pyridine 1-oxide]",0.1 to 1
2,"O=C(O[C@@H](Cc1c(Cl)c[n+]([O-])cc1Cl)c1ccc(OC(F)F)c(OCC2CC2)c1)[C@@H]1SCCN1C(=O)c1cccc(-c2cnco2)c1 [Compound 41, 3,5-dichloro-4-((S)-2-(3-(cyclopropylmethoxy)-4-(difluoromethoxy)phenyl)-2-((S)-3-(3-(oxazol-5-yl)benzoyl)thiazolidine-2-carbonyloxy)ethyl)pyridine 1-oxide]",0.1 to 1
3,"CS(=O)(=O)N(CCN1CCOCC1)c1cc(OCC2CC2)cc(C(=O)N2CCSC2C(=O)O[C@@H](Cc2c(Cl)c[n+]([O-])cc2Cl)c2ccc(OC(F)F)c(OCC3CC3)c2)c1 (stereo partly drawn) [Compound 49, 3,5-dichloro-4-((2S)-2-(3-(cyclopropylmethoxy)-4-(difluoromethoxy)phenyl)-2-(3-(3-(cyclopropylmethoxy)-5-(N-(2-morpholinoethyl)methylsulfonamido)benzoyl)thiazolidine-2-carbonyloxy)ethyl)pyridine 1-oxide formate]",0.1 to 1
4,"CN(C)Cc1ccc(C(=O)N2CCSC2C(=O)O[C@@H](Cc2c(Cl)c[n+]([O-])cc2Cl)c2ccc(OC(F)F)c(OCC3CC3)c2)s1 (stereo partly drawn) [Compound 51, 3,5-dichloro-4-((2S)-2-(3-(cyclopropylmethoxy)-4-(difluoromethoxy)phenyl)-2-(3-(5-((dimethylamino)methyl)thiophene-2-carbonyl)thiazolidine-2-carbonyloxy)ethyl)pyridine 1-oxide formate]",0.1 to 1
5,"CN(C)C(=O)c1cccc(S(=O)(=O)N2CCS[C@H]2C(=O)O[C@@H](Cc2c(Cl)c[n+]([O-])cc2Cl)c2ccc(OC(F)F)c(OCC3CC3)c2)c1 [Compound 52, 3,5-dichloro-4-((S)-2-(3-(cyclopropylmethoxy)-4-(difluoromethoxy)phenyl)-2-((S)-3-(3-(dimethylcarbamoyl)phenylsulfonyl)thiazolidine-2-carbonyloxy)ethyl)pyridine 1-oxide]",< 0.1
6,"COc1ccc(S(=O)(=O)N2CCC[C@H]2C(=O)O[C@@H](Cc2c(Cl)c[n+]([O-])cc2Cl)c2ccc(OC(F)F)c(OCC3CC3)c2)cc1OC [Compound 53, 3,5-dichloro-4-((S)-2-(3-(cyclopropylmethoxy)-4-(difluoromethoxy)phenyl)-2-((S)-1-(3,4-dimethoxyphenylsulfonyl)pyrrolidine-2-carbonyloxy)ethyl)pyridine 1-oxide]",0.1 to 1
7,"CN(C)C(=O)c1cccc(S(=O)(=O)N2CCC[C@H]2C(=O)O[C@@H](Cc2c(Cl)c[n+]([O-])cc2Cl)c2ccc(OC(F)F)c(OCC3CC3)c2)c1 [Compound 54, 3,5-dichloro-4-((S)-2-(3-(cyclopropylmethoxy)-4-(difluoromethoxy)phenyl)-2-((S)-1-(3-(dimethylcarbamoyl)phenylsulfonyl)pyrrolidine-2-carbonyloxy)ethyl)pyridine 1-oxide]",< 0.1
8,"CN(C)C(=O)c1cccc(S(=O)(=O)N2CCC[C@@H]2C(=O)O[C@@H](Cc2c(Cl)c[n+]([O-])cc2Cl)c2ccc(OC(F)F)c(OCC3CC3)c2)c1 [Compound 55, 3,5-dichloro-4-((S)-2-(3-(cyclopropylmethoxy)-4-(difluoromethoxy)phenyl)-2-((R)-1-(3-(dimethylcarbamoyl)phenylsulfonyl)pyrrolidine-2-carbonyloxy)ethyl)pyridine 1-oxide]",0.1 to 1
